# Experimental data reported in ChEMBL document CHEMBL5346969 (J Med Chem, 2023).
# Calls of active or inactive are those of the source. No cut-off for these calls is given here.
# Tests used:
# [1] = test system: MDA-MB-231; test: Induction of ferroptosis in siRNA mediated GPX4 knockdown human MDA-MB-231 cells with assessed as cell viability at 10 nM incubated for 10 hrs by MTT assay; format: functional, cell-based
# [2] = Tmax in rat at 10 mg/kg, ip and measured upto 24 hrs by LC-MS/MS analysis; format: ADME, organism-based; conditions: in vivo
# [3] = Acute toxicity in ICR mouse assessed as lethality at 200 to 488 mg/kg,ip and measured after 14 days; format: organism-based; conditions: in vivo, dose 200-488 mg/kg, time 14 day
# [4] = test system: MDA-MB-231; test: Induction of ferroptosis in siRNA mediated GPX4 knockdown human MDA-MB-231 cells with assessed as change in ACSL4 protein expression level at 20 nM incubated for 8 hrs by Western blot analysis; format: functional, cell-based
# [5] = test system: MDA-MB-231; test: Induction of ferroptosis in siRNA mediated GPX4 knockdown human MDA-MB-231 cells with assessed as change in xCT protein expression level at 20 nM incubated for 8 hrs by Western blot analysis; format: functional, cell-based
# [6] = Cmax in rat at 10 mg/kg, ip and measured upto 24 hrs by LC-MS/MS analysis; format: ADME, organism-based; set-up: time < 24 hrs, dose 10 mg/kg, route ip; conditions: in vivo
# [7] = target: T1, Phospholipid hydroperoxide glutathione peroxidase GPX4 (Homo sapiens) (UniProt P36969); test: Binding affinity to GPX4 (unknown origin) at Cys66 residue assessed as change in mass of single charged y2+ ion at 100 uM incubated for 1.5 hrs by SDS-PAGE based LC-MS/MS analysis
# T1 sequence (whole entry): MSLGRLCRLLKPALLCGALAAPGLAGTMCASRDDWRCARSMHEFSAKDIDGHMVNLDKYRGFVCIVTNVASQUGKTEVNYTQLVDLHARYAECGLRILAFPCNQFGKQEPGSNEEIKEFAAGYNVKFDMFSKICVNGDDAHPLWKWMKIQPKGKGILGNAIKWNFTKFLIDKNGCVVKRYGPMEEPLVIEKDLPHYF
# [8] = test system: MDA-MB-231; test: Induction of ferroptosis in siRNA mediated GPX4 knockdown human MDA-MB-231 cells with assessed as intracellular lipid peroxidase at 20 nM incubated for 8 hrs by C11-BODIPY-581/591 staining based confocal laser microscopy; format: functional, cell-based
# [9] = test system: MDA-MB-231; test: Induction of ferroptosis in siRNA mediated GPX4 knockdown human MDA-MB-231 cells with assessed as change in GPX4 protein expression level at 20 nM incubated for 8 hrs by Western blot analysis; format: functional, cell-based
# [10] = Toxicity in immunodeficient BALB/c mouse assessed as bone marrow suppression by measuring HGB level at 20 mg/kg, ip for 14 days by whole blood analysis; format: organism-based; conditions: in vivo, 336 h, time 14 day
# [11] = Toxicity in immunodeficient BALB/c mouse assessed as bone marrow suppression by measuring RBC level at 20 mg/kg, ip for 14 days by whole blood analysis; format: organism-based, Erythrocyte; conditions: in vivo, 336 h, time 14 day
Structure (SMILES),Activity [1],Tmax [2],LD50 at 336 h [3],Activity [4],Activity [5],Cmax [6],Activity [7],Activity [8],Activity [9],Activity [10],Activity [11]
COc1cc(N(C(=O)CCl)c2ccc3c(c2)OCCO3)cc(OC)c1F,inactive,51 min,338 mg/kg,inactive,inactive,5205 ng/mL,inactive,Active,inactive,,
COc1cc(N(C(=O)CBr)c2ccc3c(c2)OCCO3)cc(OC)c1F,,,,,,,,,,Toxic,Toxic
